Laboratory results as given in patent US6737383B1, “Herbicidal oxadiazolidines” (priority 1999, dated 2004).

Columns and labels:
bamyardgrass = assay: Test B flood test barnyardgrass; assay type: in vivo, Echinochloa crus-galli
How it was run: (§1)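 Read-out is a visual response score from 0 (no effect) to 10 (complete control), assigned by comparison with untreated controls. Treatment was applied at the 2-leaf stage, and plants stayed in the greenhouse for twelve to sixteen days before scoring.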

blackgrass = assay: Test B pre/postemergence blackgrass; assay type: in vivo, Alopecurus myosuroides
How it was run: (§2)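 Response is a visual 0-to-10 score relative to untreated plants, where 0 means no effect and 10 means complete control, taken twelve to sixteen days after application. Treatments went onto soil at planting and onto foliage of 1- to 4-leaf plants, using a surfactant-containing non-phytotoxic solvent.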

wheat = assay: Test B pre/postemergence wheat; assay type: in vivo, Triticum aestivum
How it was run: as §2

pigweed = assay: Test B pre/postemergence pigweed; assay type: in vivo, Amaranthus retroflexus
How it was run: as §2

morningglory = assay: Test B pre/postemergence morningglory; assay type: in vivo, Ipomoea hederacea
How it was run: as §2

soybean = assay: Test B pre/postemergence soybean; assay type: in vivo, Glycine max
How it was run: as §2

cocklebur = assay: Test B pre/postemergence cocklebur; assay type: in vivo, Xanthium strumarium
How it was run: as §2

corn = assay: Test B pre/postemergence corn; assay type: in vivo, Zea mays
How it was run: as §2

duck salad = assay: Test B flood test duck salad; assay type: in vivo, Heteranthera limosa
How it was run: as §1

smallflower flatsedge = assay: Test B flood test smallflower flatsedge; assay type: in vivo, Cyperus difformis
How it was run: as §1

rice = assay: Test B flood test rice; assay type: in vivo, Oryza sativa
How it was run: as §1

velvetleaf = assay: Test B pre/postemergence velvetleaf; assay type: in vivo, Abutilon theophrasti
How it was run: as §2

purple nutsedge = assay: Test B pre/postemergence purple nutsedge; assay type: in vivo, Cyperus rotundus
How it was run: as §2

crabgrass = assay: Test B pre/postemergence crabgrass; assay type: in vivo, Digitaria sanguinalis
How it was run: as §2

giant foxtail = assay: Test B pre/postemergence giant foxtail; assay type: in vivo, Setaria faberii
How it was run: as §2

sugar beet = assay: Test B pre/postemergence sugar beet; assay type: in vivo, Beta vulgaris
How it was run: as §2

wild oat = assay: Test B pre/postemergence wild oat; assay type: in vivo, Avena fatua
How it was run: as §2

bedstraw = assay: Test B pre/postemergence bedstraw; assay type: in vivo, Galium aparine
How it was run: as §2

surinam grass = assay: Test B pre/postemergence surinam grass; assay type: in vivo, Brachiaria decumbens
How it was run: as §2

rape = assay: Test B pre/postemergence rape; assay type: in vivo, Brassica napus
How it was run: as §2

[1] = Rate 62 g/ha, flood test species, Pre-emergence, visual evaluation after twelve to sixteen days
[2] = Rate 125 g/ha, under heading Pre-emergence, flood test species, visual evaluation after twelve to sixteen days
[3] = Rate 250 g/ha, Pre-emergence (flood test species), scale 0 to 10, 0 is no effect, 10 is complete control
[4] = Rate 500 g/ha, Pre-emergence section of Table B, 0 to 10 scale (0 no effect, 10 complete control)
[5] = Postemergence, Rate 125 g/ha, scale 0 to 10, 0 is no effect, 10 is complete control
[6] = Postemergence, Rate 250 g/ha, scale 0 to 10
[7] = Postemergence, Rate 500 g/ha, scale 0 to 10, 0 is no effect, 10 is complete control
[8] = Preemergence, Rate 62 g/ha, scale of 0 to 10 where 0 is no effect and 10 is complete control
[9] = Preemergence, Rate 125 g/ha, scale 0 to 10, 0 is no effect, 10 is complete control
[10] = Preemergence, Rate 250 g/ha, scale 0 to 10, 0 is no effect, 10 is complete control
[11] = Preemergence, Rate 500 g/ha, scale of 0 to 10 where 0 is no effect and 10 is complete control
[12] = Rate 62 g/ha, Postemergence, scale 0 to 10 (0 no effect, 10 complete control)
[13] = Preemergence, Rate 500 g/ha, scale 0 to 10, 0 is no effect, 10 is complete control

CC(C)N(C(=O)n1oc(=O)n(CC2=NCCCO2)c1=O)c1ccccc1 [Compound 494]
Plant response rating, Barnyardgrass (0 to 10 scale, 0 is no effect, 10 is complete control) (bamyardgrass; [1]): 0
Barnyardgrass plant response rating (0 to 10 scale, 0 is no effect, 10 is complete control) (bamyardgrass; [2]): 0
Barnyardgrass plant response rating (bamyardgrass; [3]): 0
Barnyardgrass plant response rating (bamyardgrass; [4]): 0
Blackgrass plant response rating (blackgrass; [5]): 0
Blackgrass plant response rating (blackgrass; [6]): 0
Plant response rating, Blackgrass (blackgrass; [7]): 0
Plant response rating, Blackgrass (blackgrass; [8]): 0
Blackgrass plant response rating (blackgrass; [9]): 0
Blackgrass plant response rating (blackgrass; [10]): 0
Blackgrass plant response rating (blackgrass; [11]): 0
Blackgrass plant response rating (blackgrass; [12]): 0
Wheat plant response rating (wheat; [5]): 0
Plant response rating, Wheat (wheat; [7]): 0
Plant response rating, Wheat (wheat; [8]): 0
Wheat plant response rating (wheat; [9]): 0
Wheat plant response rating (wheat; [11]): 0
Wheat plant response rating (wheat; [12]): 0
Redroot pigweed plant response rating (pigweed; [5]): 0
Plant response rating, Redroot pigweed (pigweed; [7]): 0
Plant response rating, Redroot pigweed (pigweed; [8]): 0
Redroot pigweed plant response rating (pigweed; [9]): 0
Redroot pigweed plant response rating (pigweed; [11]): 0
Redroot pigweed plant response rating (pigweed; [12]): 0
Morningglory plant response rating (morningglory; [5]): 0
Plant response rating, Morningglory (morningglory; [7]): 0
Plant response rating, Morningglory (morningglory; [8]): 0
Morningglory plant response rating (morningglory; [9]): 0
Morningglory plant response rating (morningglory; [11]): 0
Morningglory plant response rating (morningglory; [12]): 0
Soybean plant response rating (soybean; [5]): 0
Plant response rating, Soybean (soybean; [7]): 1
Plant response rating, Soybean (soybean; [8]): 0
Soybean plant response rating (soybean; [9]): 1
Soybean plant response rating (soybean; [11]): 1
Soybean plant response rating (soybean; [12]): 0
Cocklebur plant response rating (cocklebur; [5]): 0
Cocklebur plant response rating (cocklebur; [6]): 0
Plant response rating, Cocklebur (cocklebur; [7]): 0
Plant response rating, Cocklebur (cocklebur; [8]): 0
Cocklebur plant response rating (cocklebur; [9]): 0
Cocklebur plant response rating (cocklebur; [10]): 0
Cocklebur plant response rating (cocklebur; [11]): 0
Cocklebur plant response rating (cocklebur; [12]): 0
Corn plant response rating (corn; [5]): 0
Corn plant response rating (corn; [6]): 0
Plant response rating, Corn (corn; [7]): 0
Plant response rating, Corn (corn; [8]): 0
Corn plant response rating (corn; [9]): 0
Corn plant response rating (corn; [11]): 0
Corn plant response rating (corn; [12]): 0
Plant response rating, Ducksalad (0 to 10 scale, 0 is no effect, 10 is complete control) (duck salad; [1]): 0
Ducksalad plant response rating (0 to 10 scale, 0 is no effect, 10 is complete control) (duck salad; [2]): 0
Ducksalad plant response rating (duck salad; [3]): 0
Ducksalad plant response rating (duck salad; [4]): 0
Plant response rating, S. Flatsedge (0 to 10 scale, 0 is no effect, 10 is complete control) (smallflower flatsedge; [1]): 0
S. Flatsedge plant response rating (0 to 10 scale, 0 is no effect, 10 is complete control) (smallflower flatsedge; [2]): 0
S. Flatsedge plant response rating (smallflower flatsedge; [3]): 0
S. Flatsedge plant response rating (smallflower flatsedge; [4]): 0
Plant response rating, Rice (0 to 10 scale, 0 is no effect, 10 is complete control) (rice; [1]): 0
Rice plant response rating (0 to 10 scale, 0 is no effect, 10 is complete control) (rice; [2]): 0
Rice plant response rating (rice; [3]): 0
Rice plant response rating (rice; [4]): 0
Velvetleaf plant response rating (velvetleaf; [5]): 0
Plant response rating, Velvetleaf (velvetleaf; [7]): 0
Plant response rating, Velvetleaf (velvetleaf; [8]): 0
Velvetleaf plant response rating (velvetleaf; [9]): 0
Velvetleaf plant response rating (velvetleaf; [11]): 0
Velvetleaf plant response rating (velvetleaf; [12]): 0
Nutsedge plant response rating (purple nutsedge; [5]): 0
Plant response rating, Nutsedge (purple nutsedge; [7]): 0
Plant response rating, Nutsedge (purple nutsedge; [8]): 0
Nutsedge plant response rating (purple nutsedge; [9]): 0
Nutsedge plant response rating (purple nutsedge; [11]): 0
Nutsedge plant response rating (purple nutsedge; [12]): 0
Crabgrass plant response rating (crabgrass; [5]): 0
Plant response rating, Crabgrass (crabgrass; [8]): 0
Crabgrass plant response rating (crabgrass; [9]): 0
Crabgrass plant response rating (crabgrass; [11]): 0
Crabgrass plant response rating (crabgrass; [12]): 0
Giant foxtail plant response rating (giant foxtail; [5]): 0
Plant response rating, Giant foxtail (giant foxtail; [7]): 0
Plant response rating, Giant foxtail (giant foxtail; [8]): 0
Giant foxtail plant response rating (giant foxtail; [9]): 0
Giant foxtail plant response rating (giant foxtail; [11]): 0
Giant foxtail plant response rating (giant foxtail; [12]): 0
Sugarbeets plant response rating (sugar beet; [5]): 0
Plant response rating, Sugarbeets (sugar beet; [7]): 0
Plant response rating, Sugarbeets (sugar beet; [8]): 0
Sugarbeets plant response rating (sugar beet; [9]): 0
Sugarbeets plant response rating (sugar beet; [11]): 0
Sugarbeets plant response rating (sugar beet; [12]): 0
Wild oats plant response rating (wild oat; [5]): 0
Plant response rating, Wild oats (wild oat; [7]): 0
Plant response rating, Wild oats (wild oat; [8]): 0
Wild oats plant response rating (wild oat; [9]): 0
Wild oats plant response rating (wild oat; [11]): 0
Wild oats plant response rating (wild oat; [12]): 0
Plant response rating, Bedstraw (bedstraw; [8]): 0
Bedstraw plant response rating (bedstraw; [9]): 0
Bedstraw plant response rating (bedstraw; [10]): 0
Bedstraw plant response rating (bedstraw; [13]): 0
Bedstraw plant response rating (bedstraw; [12]): 0
B. signalgrass plant response rating (surinam grass; [5]): 0
B. signalgrass plant response rating (surinam grass; Postemergence, Rate 250 g/ha, scale 0 to 10, 0 no effect, 10 complete control): 0
Plant response rating, B. signalgrass (surinam grass; [7]): 0
Plant response rating, B. signalgrass (surinam grass; [8]): 0
B. signalgrass plant response rating (surinam grass; [9]): 0
B. signalgrass plant response rating (surinam grass; [10]): 0
B. signalgrass plant response rating (surinam grass; [13]): 0
B. signalgrass plant response rating (surinam grass; [12]): 0
Rape plant response rating (rape; [5]): 0
Plant response rating, Rape (rape; [7]): 0
Plant response rating, Rape (rape; [8]): 0
Rape plant response rating (rape; [9]): 0
Rape plant response rating (rape; [11]): 0
Rape plant response rating (rape; [12]): 0
